Where a name gives a salt, the structure may show the parent alone. Read-outs that look alike come from different tables or passages of the source.
Experiments:
Test in all cases: AK assay 384-well format, Prestwick library screening
E. cloacae = type: cell-based, Enterobacter cloacae; conditions: 50 μM final drug concentration; for fold induction at 50 µM: Enterobacter cloacae, 3 h
E. faecium = type: cell-based, Enterococcus faecium; conditions: 50 μM final drug concentration; for fold induction at 50 µM: Enterococcus faecium, 3 h
E. coli = type: cell-based, Escherichia coli; conditions: 50 μM final drug concentration; for fold induction at 50 µM: Escherichia coli, 3 h
P. aeruginosa = type: cell-based, Pseudomonas aeruginosa; conditions: 50 μM final drug concentration; for fold induction at 50 µM: Pseudomonas aeruginosa, 3 h
[1] = system: A. baumannii strain 98-37-09; type: cell-based, Acinetobacter baumannii; conditions: 50 μM final drug concentration; for fold induction at 50 µM: Acinetobacter baumannii, 983709, 3 h
K. pneumoniae = type: cell-based, Klebsiella pneumoniae; conditions: 50 μM final drug concentration; for fold induction at 50 µM: Klebsiella pneumoniae, 3 h
[2] = system: S. aureus strain USA300-0114; type: cell-based, Staphylococcus aureus; conditions: 50 μM final drug concentration; for fold induction at 50 µM: Staphylococcus aureus, USA300, 3 h
[3] = planktonic, cutoff for positive-scoring molecules 3-fold increase
[4] = planktonic E. cloacae, 384-well, […], read-out: AK-based Prestwick Library Screening Results: E. cloacae (increase in extracellular AK activity)
[5] = planktonic E. faecium, 384-well, […], read-out: AK-based Prestwick Library Screening Results: E. faecium (increase in extracellular AK activity)
[6] = planktonic E. coli, 384-well, […], read-out: AK-based Prestwick Library Screening Results: E. coli (increase in extracellular AK activity)
[7] = planktonic P. aeruginosa, 384-well, […], read-out: AK-based Prestwick Library Screening Results: P. aeruginosa (increase in extracellular AK activity)
[8] = planktonic A. baumannii, 384-well, […], read-out: AK-based Prestwick Library Screening Results: A. baumannii (increase in extracellular AK activity)
[9] = planktonic K. pneumoniae, 384-well, […], read-out: AK-based Prestwick Library Screening Results: K. pneumoniae (increase in extracellular AK activity)
[10] = planktonic S. aureus, 384-well, […], read-out: AK-based Prestwick Library Screening Results: S. aureus (increase in extracellular AK activity)
[11] = 384-well format, cutoff for positive-scoring molecules 3-fold increase, read-out: AK-based Prestwick Library Screening Results, E. cloacae (increase in extracellular AK activity)
[12] = 384-well format, cutoff for positive-scoring molecules 3-fold increase, read-out: AK-based Prestwick Library Screening Results, E. faecium (increase in extracellular AK activity)
[13] = 384-well format, cutoff for positive-scoring molecules 3-fold increase, read-out: AK-based Prestwick Library Screening Results, E. coli (increase in extracellular AK activity)
[14] = 384-well format, cutoff for positive-scoring molecules 3-fold increase, read-out: AK-based Prestwick Library Screening Results, P. aeruginosa (increase in extracellular AK activity)
[15] = 384-well format, cutoff for positive-scoring molecules 3-fold increase, read-out: AK-based Prestwick Library Screening Results, A. baumannii (increase in extracellular AK activity)
[16] = 384-well format, cutoff for positive-scoring molecules 3-fold increase, read-out: AK-based Prestwick Library Screening Results, K. pneumoniae (increase in extracellular AK activity)
[17] = 384-well format, cutoff for positive-scoring molecules 3-fold increase, read-out: AK-based Prestwick Library Screening Results, S. aureus (increase in extracellular AK activity)
[18] = cutoff for positive-scoring molecules 3-fold increase
[19] = planktonic, cutoff for positive 3-fold increase

## Avermectin B1
E. cloacae; [3]
  AK-based Prestwick Library Screening Results, E. cloacae (fold increase in extracellular AK activity): 0.9
E. faecium; [3]
  AK-based Prestwick Library Screening Results, E. faecium (fold increase in extracellular AK activity): 1.2
E. coli; [3]
  AK-based Prestwick Library Screening Results, E. coli (fold increase in extracellular AK activity): 0.8
P. aeruginosa; [3]
  AK-based Prestwick Library Screening Results, P. aeruginosa (fold increase in extracellular AK activity): 0.6
[1]; [3]
  AK-based Prestwick Library Screening Results, A. baumannii (fold increase in extracellular AK activity): 0.8
K. pneumoniae; [3]
  AK-based Prestwick Library Screening Results, K. pneumoniae (fold increase in extracellular AK activity): 0.6
[2]; [3]
  AK-based Prestwick Library Screening Results, S. aureus (fold increase in extracellular AK activity): 1.7

## C1CCC(C(CC2CCCCN2)C2CCCCC2)CC1 (centres unmarked) [Perhexiline maleate]
E. cloacae; [4]
  fold induction at 50 µM: 1.5
E. faecium; [5]
  fold induction at 50 µM: 1.2
E. coli; [6]
  fold induction at 50 µM: 1.8
P. aeruginosa; [7]
  fold induction at 50 µM: 1.4
[1]; [8]
  fold induction at 50 µM: 3.4
K. pneumoniae; [9]
  fold induction at 50 µM: 1.6
[2]; [10]
  fold induction at 50 µM: 0.8

## CN1CCN2c3ccccc3Cc3ccccc3C2C1 (centres unmarked) [Mianserine hydrochloride]
E. cloacae; [11]
  fold induction at 50 µM: 0.7
E. faecium; [12]
  fold induction at 50 µM: 0.9
E. coli; [13]
  fold induction at 50 µM: 0.7
P. aeruginosa; [14]
  fold induction at 50 µM: 0.8
[1]; [15]
  fold induction at 50 µM: 0.8
K. pneumoniae; [16]
  fold induction at 50 µM: 0.6
[2]; [17]
  fold induction at 50 µM: 0.7

## CC(=O)OC(C)C[N+](C)(C)C (centres unmarked) [Methacholine chloride]
E. cloacae; planktonic, cutoff for positive-scoring molecules 3-fold increase, read-out: AK-based Prestwick Library Screening Results, E. cloacae (fold increase in extracellular AK activity)
  fold induction at 50 µM: 1.3
E. faecium; planktonic, cutoff for positive-scoring molecules 3-fold increase, read-out: AK-based Prestwick Library Screening Results, E. faecium (fold increase in extracellular AK activity)
  fold induction at 50 µM: 0.9
E. coli; planktonic, cutoff for positive-scoring molecules 3-fold increase, read-out: AK-based Prestwick Library Screening Results, E. coli (fold increase in extracellular AK activity)
  fold induction at 50 µM: 0.9
P. aeruginosa; planktonic, cutoff for positive-scoring molecules 3-fold increase, read-out: AK-based Prestwick Library Screening Results, P. aeruginosa (fold increase in extracellular AK activity)
  fold induction at 50 µM: 0.9
[1]; planktonic, cutoff for positive-scoring molecules 3-fold increase, read-out: AK-based Prestwick Library Screening Results, A. baumannii (fold increase in extracellular AK activity)
  fold induction at 50 µM: 0.8
K. pneumoniae; planktonic, cutoff for positive-scoring molecules 3-fold increase, read-out: AK-based Prestwick Library Screening Results, K. pneumoniae (fold increase in extracellular AK activity)
  fold induction at 50 µM: 0.7
[2]; planktonic, cutoff for positive-scoring molecules 3-fold increase, read-out: AK-based Prestwick Library Screening Results, S. aureus (fold increase in extracellular AK activity)
  fold induction at 50 µM: 0.7

## C#C[C@]1(O)CC[C@H]2[C@@H]3CCC4=Cc5oncc5C[C@]4(C)[C@H]3CC[C@@]21C [Danazol]
E. cloacae; [11]
  fold induction at 50 µM: 0.9
E. faecium; [12]
  fold induction at 50 µM: 0.9
E. coli; [13]
  fold induction at 50 µM: 0.7
P. aeruginosa; [14]
  fold induction at 50 µM: 0.8
[1]; [15]
  fold induction at 50 µM: 0.9
K. pneumoniae; [16]
  fold induction at 50 µM: 0.6
[2]; [17]
  fold induction at 50 µM: 0.6

## C[C@H](CCC(=O)O)[C@H]1CC[C@H]2[C@@H]3[C@@H](O)C[C@@H]4C[C@H](O)CC[C@]4(C)[C@H]3CC[C@]12C [Urosiol]
E. cloacae; [18]
  AK-based Prestwick Library Screening Results, E. cloacae (fold increase in extracellular AK activity): 1.4
E. faecium; [18]
  AK-based Prestwick Library Screening Results, E. faecium (fold increase in extracellular AK activity): 1.0
E. coli; [18]
  AK-based Prestwick Library Screening Results, E. coli (fold increase in extracellular AK activity): 1.2
P. aeruginosa; [18]
  AK-based Prestwick Library Screening Results, P. aeruginosa (fold increase in extracellular AK activity): 1.2
[1]; [18]
  AK-based Prestwick Library Screening Results, A. baumannii (fold increase in extracellular AK activity): 1.3
K. pneumoniae; [18]
  AK-based Prestwick Library Screening Results, K. pneumoniae (fold increase in extracellular AK activity): 1.0
[2]; [18]
  AK-based Prestwick Library Screening Results, S. aureus (fold increase in extracellular AK activity): 1.2

## COc1cc2c(cc1OC)C(C)NCC2.Cl (centres unmarked)
E. cloacae; [19]
  AK-based Prestwick Library Screening Results, E. cloacae (fold increase in extracellular AK activity): 1.5
E. faecium; [19]
  AK-based Prestwick Library Screening Results, E. faecium (fold increase in extracellular AK activity): 0.9
E. coli; planktonic, […]
  AK-based Prestwick Library Screening Results, E. coli (fold increase in extracellular AK activity): 1.3
P. aeruginosa; [19]
  AK-based Prestwick Library Screening Results, P. aeruginosa (fold increase in extracellular AK activity): 1.2
[1]; [19]
  AK-based Prestwick Library Screening Results, A. baumannii (fold increase in extracellular AK activity): 1.0
K. pneumoniae; [19]
  AK-based Prestwick Library Screening Results, K. pneumoniae (fold increase in extracellular AK activity): 1.0
[2]; [19]
  AK-based Prestwick Library Screening Results, S. aureus (fold increase in extracellular AK activity): 1.0

## CN1C(=O)CC(c2ccccc2)C1=O (centres unmarked) [Phensuximide]
E. cloacae; planktonic E. cloacae, […], read-out: AK-based Prestwick library screening result, E. cloacae (fold increase in extracellular AK activity)
  fold induction at 50 µM: 1.1
E. faecium; planktonic E. faecium, […], read-out: AK-based Prestwick library screening result, E. faecium (fold increase in extracellular AK activity)
  fold induction at 50 µM: 0.9
E. coli; planktonic E. coli, […], read-out: AK-based Prestwick library screening result, E. coli (fold increase in extracellular AK activity)
  fold induction at 50 µM: 1
P. aeruginosa; planktonic P. aeruginosa, […], read-out: AK-based Prestwick library screening result, P. aeruginosa (fold increase in extracellular AK activity)
  fold induction at 50 µM: 0.7
[1]; planktonic A. baumannii, […], read-out: AK-based Prestwick library screening result, A. baumannii (fold increase in extracellular AK activity)
  fold induction at 50 µM: 0.8
K. pneumoniae; planktonic K. pneumoniae, […], read-out: AK-based Prestwick library screening result, K. pneumoniae (fold increase in extracellular AK activity)
  fold induction at 50 µM: 0.8
[2]; planktonic S. aureus, […], read-out: AK-based Prestwick library screening result, S. aureus (fold increase in extracellular AK activity)
  fold induction at 50 µM: 0.7

## CC(C)NCC(O)c1ccc(NS(C)(=O)=O)cc1 (centres unmarked) [Sotalol hydrochloride]
E. cloacae; cutoff for positive-scoring molecules 3-fold increase, read-out: AK-based Prestwick Library Screening Results, E. cloacae (fold increase in extracellular AK activity)
  fold induction at 50 µM: 0.4
E. faecium; cutoff for positive-scoring molecules 3-fold increase, read-out: AK-based Prestwick Library Screening Results, E. faecium (fold increase in extracellular AK activity)
  fold induction at 50 µM: 0.8
E. coli; cutoff for positive-scoring molecules 3-fold increase, read-out: AK-based Prestwick Library Screening Results, E. coli (fold increase in extracellular AK activity)
  fold induction at 50 µM: 0.4
P. aeruginosa; cutoff for positive-scoring molecules 3-fold increase, read-out: AK-based Prestwick Library Screening Results, P. aeruginosa (fold increase in extracellular AK activity)
  fold induction at 50 µM: 0.4
[1]; cutoff for positive-scoring molecules 3-fold increase, read-out: AK-based Prestwick Library Screening Results, A. baumannii (fold increase in extracellular AK activity)
  fold induction at 50 µM: 0.5
K. pneumoniae; cutoff for positive-scoring molecules 3-fold increase, read-out: AK-based Prestwick Library Screening Results, K. pneumoniae (fold increase in extracellular AK activity)
  fold induction at 50 µM: 0.5
[2]; cutoff for positive-scoring molecules 3-fold increase, read-out: AK-based Prestwick Library Screening Results, S. aureus (fold increase in extracellular AK activity)
  fold induction at 50 µM: 0.4

## CN(C)C(=O)C(CCN1CCC(O)(c2ccc(Cl)cc2)CC1)(c1ccccc1)c1ccccc1 [Loperamide hydrochloride]
E. cloacae; [4]
  fold induction at 50 µM: 1.5
E. faecium; [5]
  fold induction at 50 µM: 0.9
E. coli; [6]
  fold induction at 50 µM: 1.4
P. aeruginosa; [7]
  fold induction at 50 µM: 1.2
[1]; [8]
  fold induction at 50 µM: 1.5
K. pneumoniae; [9]
  fold induction at 50 µM: 0.9
[2]; [10]
  fold induction at 50 µM: 1

## Iobenguane sulfate
E. cloacae; planktonic E. cloacae, cutoff for positive-scoring molecules 3-fold increase
  AK-based Prestwick Library Screening Results, E. cloacae (increase in extracellular AK activity): 0.6
E. faecium; planktonic E. faecium, cutoff for positive-scoring molecules 3-fold increase
  AK-based Prestwick Library Screening Results, E. faecium (increase in extracellular AK activity): 0.9
E. coli; planktonic E. coli, cutoff for positive-scoring molecules 3-fold increase
  AK-based Prestwick Library Screening Results, E. coli (increase in extracellular AK activity): 0.5
P. aeruginosa; planktonic P. aeruginosa, cutoff for positive-scoring molecules 3-fold increase
  AK-based Prestwick Library Screening Results, P. aeruginosa (increase in extracellular AK activity): 0.4
[1]; planktonic A. baumannii, cutoff for positive-scoring molecules 3-fold increase
  AK-based Prestwick Library Screening Results, A. baumannii (increase in extracellular AK activity): 0.5
K. pneumoniae; planktonic K. pneumoniae, cutoff for positive-scoring molecules 3-fold increase
  AK-based Prestwick Library Screening Results, K. pneumoniae (increase in extracellular AK activity): 0.5
[2]; planktonic S. aureus, cutoff for positive-scoring molecules 3-fold increase
  AK-based Prestwick Library Screening Results, S. aureus (increase in extracellular AK activity): 0.5

Reference: patent US10004701B2, “Methods and compositions for treating infection” (UNIVERSITY OF ROCHESTER, priority 2012, dated 2018)
